From patent US7563918B2, “Solid and crystalline ibandronate sodium and processes for preparation thereof” (Teva Pharmaceutical Industries Ltd., priority 2004, dated 2009)

Test: Storage stability of crystalline form (polymorphic transformation)
Format: physicochemical
Conditions: stored under 100% relative humidity at 40° C. for 3 days
From the text: In another embodiment, the present invention provides a solid crystalline form of ibandronate sodium denominated Form QQ. Form QQ is characterized by x-ray powder diffraction reflections at 6.2, 25.9, 26.7, 31.1, and 37.2±0.2 degrees two-theta. Form QQ can be further characterized by x-ray powder diffraction reflections at 16.9, 17.3, 21.5, 24.7, and 29.2±0.2 degrees two-theta. […] Form QQ also has a particle size distribution of not more than 100μpreferably not more than 60μ. […] can be a in the range of a monohydrate to a trihydrate. Form QQ can be further characterized by TGA, showing a weight loss of about 5 to about 12%.

With CCCCCN(C)CCC(O)(P(=O)([O-])O)P(=O)(O)O.[Na+] [Form QQ, (1-hydroxy-3-(N-methyl-N-pentylamino)propylidene) bisphosphonic acid monosodium salt] the “transformation into other polymorphic forms when stored” value was ≤ 5%.
